Assays:
ATR/ATRIP = ATR/ATRIP (Homo sapiens (Human), UniProt Q13535); assay: ATR/ATRIP kinase assay (TR-FRET, p53 Ser15 phosphorylation); type: biochemical; conditions: 0.5 μM ATP, 50 nM p53
Method in brief: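 Full-length human ATR/ATRIP co-expressed in mammalian cells (typically 0.3 nM) preincubated with compound 15 min at 22° C, then 50 nM cmyc-p53 and 0.5 μM ATP added for typically 25 min; HEPES pH 8.0 with Mg2+/Mn2+. p53 Ser15 phosphorylation read by HTRF (665/615 ratio); IC50 by nonlinear regression.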

[1] = target: Kv11.1 (hERG) ion channel (Homo sapiens (Human), UniProt Q12809); assay: Kv11.1 (hERG) ion channel activity, whole cell patch clamp in HEK293; type: cell-based; conditions: for Ki: heading: hERG Ki, HEK293 cells stably expressing hERG, patch clamp
Protocol: Kv11.1 (hERG) Ion Channel Activity
In this assay, a potential in vitro effect of test compounds on the Kv11.1 (hERG) ion channel current is investigated which mediates the rapidly activating, delayed rectifier cardiac potassium current (IKr). The assay is performed with a stable Kv11.1 (hERG) transfected human embryonic kidney cell line (HEK293) by whole cell patch clamp technique carried out at room temperature.
The Kv11.1 (hERG) ion channel blocker quinidine is used as reference compound. The effects of the test compounds and quinidine are normalized to the corresponding vehicle control. The whole cell recordings are carried out with an automated patch clamp device Patchliner™, Nanion Technologies, Munich). Hereby the Patch Clamp measurements run on silicate-coated chips with a hole of a defined diameter. Solutions, cell suspension and compounds are applied by a Teflon-laminated pipette needle through microfluidic silicate-laminated channels. Commercial patch clamp amplifiers (EPC10, HEKA Elektronik Dr. Schulze GmbH, Germany) are used for the patch clamp recordings. HEK293 cells stably expressing the hERG gene are held at −80 mV. Steady-state inhibition of Kv11.1 (hERG) potassium current due to test/reference compound application is measured using a pulse pattern with fixed amplitudes: 51 ms/−80 mV, 500 ms/+40 mV, 500 ms/−40 mV, 200 ms/−80 mV. The hERG-specific voltage protocol is repeated at 10 s intervals. The leak current is subtracted by a P4 leak subtraction. Cells are resuspended in extracellular patch clamp solution (EC) and applied into the chip. After trapping the cell, the EC is exchanged by seal enhancer solution (SE) to improve the sealing procedure. When the whole cell configuration is attained, seal enhancer is washed out by the application of EC. The recording is started in EC for 1.5 min. Afterwards DMSO (vehicle control, 0.1% DMSO) is applied and the control current is measured for 3 min. Following control steady-state current, test compound is applied twice at the same concentration and the tail current is measured for 3.5 min each. For the determination of a concentration-relationship, the test compound is applied as a cumulative concentration-response curve and each concentration is measured for 5 min. The reference compound quinidine is treated in the same way. The effect on Kv11.1 (hERG) ion channel activity is judged from the tail current amplitude monitored at −40 mV (current of interest, COI). Results are calculated from the last recorded current traces. Changes in Kv11.1 (hERG) ion channel activity between control value, defined as 100% Kv11.1 (hERG) ion channel activity, application of test compound and application of quinidine is reported as percent change of control value of COI. An aliquot of test compound is collected for concentration verification during the recording. The sample is immediately measured by HPLC and the final compound concentration within the assay is calculated according to a calibration curve.

[2] = tested on: phosphorylation of Chk1 (Ser 345) in HT29 colon adenocarcinoma cells; assay: pCHK1 cellular assay; type: cell-based; conditions: Homo sapiens, HT-29, hydroxyurea 3 mM, 4 h
Method in brief: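 HT29 cells plated ≥20 h, then compound (1 nM–30 μM final) with hydroxyurea (3 mM final) added together for 4 h at 37 °C. After MeOH/Triton fixation-permeabilisation, anti-pChk1 immunostaining plus nuclear stain; nuclear pChk1 imaged by confocal high content reader, reported as % positive nuclei.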

Chain of Kv11.1 (hERG) ion channel (Q12809 whole entry): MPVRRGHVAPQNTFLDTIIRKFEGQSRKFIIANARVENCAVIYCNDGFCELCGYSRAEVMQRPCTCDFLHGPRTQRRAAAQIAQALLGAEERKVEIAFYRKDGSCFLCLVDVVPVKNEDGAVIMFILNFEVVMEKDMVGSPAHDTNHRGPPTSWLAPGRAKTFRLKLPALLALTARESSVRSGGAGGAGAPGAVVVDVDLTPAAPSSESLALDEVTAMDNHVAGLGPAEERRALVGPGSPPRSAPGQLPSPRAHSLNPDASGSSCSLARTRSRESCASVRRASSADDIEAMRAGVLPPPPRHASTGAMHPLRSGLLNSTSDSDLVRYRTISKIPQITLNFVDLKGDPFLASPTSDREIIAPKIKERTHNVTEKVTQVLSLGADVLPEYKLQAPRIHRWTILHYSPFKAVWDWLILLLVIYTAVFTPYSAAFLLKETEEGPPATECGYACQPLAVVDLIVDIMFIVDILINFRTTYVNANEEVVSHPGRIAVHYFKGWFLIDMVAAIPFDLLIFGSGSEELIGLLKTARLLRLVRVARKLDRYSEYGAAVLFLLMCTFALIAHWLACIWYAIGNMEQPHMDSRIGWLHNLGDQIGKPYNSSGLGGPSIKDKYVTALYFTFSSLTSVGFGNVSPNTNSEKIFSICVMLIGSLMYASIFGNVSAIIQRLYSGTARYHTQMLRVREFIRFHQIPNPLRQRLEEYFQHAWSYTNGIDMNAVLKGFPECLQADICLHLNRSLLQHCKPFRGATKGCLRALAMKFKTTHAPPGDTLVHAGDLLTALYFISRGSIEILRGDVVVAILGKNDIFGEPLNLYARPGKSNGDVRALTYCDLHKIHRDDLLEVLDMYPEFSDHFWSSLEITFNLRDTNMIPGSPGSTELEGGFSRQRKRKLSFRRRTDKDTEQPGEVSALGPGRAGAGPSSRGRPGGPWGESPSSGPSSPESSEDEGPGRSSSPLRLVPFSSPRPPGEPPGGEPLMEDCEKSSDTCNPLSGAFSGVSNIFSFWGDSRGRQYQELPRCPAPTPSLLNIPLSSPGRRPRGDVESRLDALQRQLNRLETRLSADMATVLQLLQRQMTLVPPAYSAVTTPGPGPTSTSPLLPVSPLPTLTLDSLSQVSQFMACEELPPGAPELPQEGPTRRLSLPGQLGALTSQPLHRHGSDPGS
Chain of ATR/ATRIP (Q13535 whole entry): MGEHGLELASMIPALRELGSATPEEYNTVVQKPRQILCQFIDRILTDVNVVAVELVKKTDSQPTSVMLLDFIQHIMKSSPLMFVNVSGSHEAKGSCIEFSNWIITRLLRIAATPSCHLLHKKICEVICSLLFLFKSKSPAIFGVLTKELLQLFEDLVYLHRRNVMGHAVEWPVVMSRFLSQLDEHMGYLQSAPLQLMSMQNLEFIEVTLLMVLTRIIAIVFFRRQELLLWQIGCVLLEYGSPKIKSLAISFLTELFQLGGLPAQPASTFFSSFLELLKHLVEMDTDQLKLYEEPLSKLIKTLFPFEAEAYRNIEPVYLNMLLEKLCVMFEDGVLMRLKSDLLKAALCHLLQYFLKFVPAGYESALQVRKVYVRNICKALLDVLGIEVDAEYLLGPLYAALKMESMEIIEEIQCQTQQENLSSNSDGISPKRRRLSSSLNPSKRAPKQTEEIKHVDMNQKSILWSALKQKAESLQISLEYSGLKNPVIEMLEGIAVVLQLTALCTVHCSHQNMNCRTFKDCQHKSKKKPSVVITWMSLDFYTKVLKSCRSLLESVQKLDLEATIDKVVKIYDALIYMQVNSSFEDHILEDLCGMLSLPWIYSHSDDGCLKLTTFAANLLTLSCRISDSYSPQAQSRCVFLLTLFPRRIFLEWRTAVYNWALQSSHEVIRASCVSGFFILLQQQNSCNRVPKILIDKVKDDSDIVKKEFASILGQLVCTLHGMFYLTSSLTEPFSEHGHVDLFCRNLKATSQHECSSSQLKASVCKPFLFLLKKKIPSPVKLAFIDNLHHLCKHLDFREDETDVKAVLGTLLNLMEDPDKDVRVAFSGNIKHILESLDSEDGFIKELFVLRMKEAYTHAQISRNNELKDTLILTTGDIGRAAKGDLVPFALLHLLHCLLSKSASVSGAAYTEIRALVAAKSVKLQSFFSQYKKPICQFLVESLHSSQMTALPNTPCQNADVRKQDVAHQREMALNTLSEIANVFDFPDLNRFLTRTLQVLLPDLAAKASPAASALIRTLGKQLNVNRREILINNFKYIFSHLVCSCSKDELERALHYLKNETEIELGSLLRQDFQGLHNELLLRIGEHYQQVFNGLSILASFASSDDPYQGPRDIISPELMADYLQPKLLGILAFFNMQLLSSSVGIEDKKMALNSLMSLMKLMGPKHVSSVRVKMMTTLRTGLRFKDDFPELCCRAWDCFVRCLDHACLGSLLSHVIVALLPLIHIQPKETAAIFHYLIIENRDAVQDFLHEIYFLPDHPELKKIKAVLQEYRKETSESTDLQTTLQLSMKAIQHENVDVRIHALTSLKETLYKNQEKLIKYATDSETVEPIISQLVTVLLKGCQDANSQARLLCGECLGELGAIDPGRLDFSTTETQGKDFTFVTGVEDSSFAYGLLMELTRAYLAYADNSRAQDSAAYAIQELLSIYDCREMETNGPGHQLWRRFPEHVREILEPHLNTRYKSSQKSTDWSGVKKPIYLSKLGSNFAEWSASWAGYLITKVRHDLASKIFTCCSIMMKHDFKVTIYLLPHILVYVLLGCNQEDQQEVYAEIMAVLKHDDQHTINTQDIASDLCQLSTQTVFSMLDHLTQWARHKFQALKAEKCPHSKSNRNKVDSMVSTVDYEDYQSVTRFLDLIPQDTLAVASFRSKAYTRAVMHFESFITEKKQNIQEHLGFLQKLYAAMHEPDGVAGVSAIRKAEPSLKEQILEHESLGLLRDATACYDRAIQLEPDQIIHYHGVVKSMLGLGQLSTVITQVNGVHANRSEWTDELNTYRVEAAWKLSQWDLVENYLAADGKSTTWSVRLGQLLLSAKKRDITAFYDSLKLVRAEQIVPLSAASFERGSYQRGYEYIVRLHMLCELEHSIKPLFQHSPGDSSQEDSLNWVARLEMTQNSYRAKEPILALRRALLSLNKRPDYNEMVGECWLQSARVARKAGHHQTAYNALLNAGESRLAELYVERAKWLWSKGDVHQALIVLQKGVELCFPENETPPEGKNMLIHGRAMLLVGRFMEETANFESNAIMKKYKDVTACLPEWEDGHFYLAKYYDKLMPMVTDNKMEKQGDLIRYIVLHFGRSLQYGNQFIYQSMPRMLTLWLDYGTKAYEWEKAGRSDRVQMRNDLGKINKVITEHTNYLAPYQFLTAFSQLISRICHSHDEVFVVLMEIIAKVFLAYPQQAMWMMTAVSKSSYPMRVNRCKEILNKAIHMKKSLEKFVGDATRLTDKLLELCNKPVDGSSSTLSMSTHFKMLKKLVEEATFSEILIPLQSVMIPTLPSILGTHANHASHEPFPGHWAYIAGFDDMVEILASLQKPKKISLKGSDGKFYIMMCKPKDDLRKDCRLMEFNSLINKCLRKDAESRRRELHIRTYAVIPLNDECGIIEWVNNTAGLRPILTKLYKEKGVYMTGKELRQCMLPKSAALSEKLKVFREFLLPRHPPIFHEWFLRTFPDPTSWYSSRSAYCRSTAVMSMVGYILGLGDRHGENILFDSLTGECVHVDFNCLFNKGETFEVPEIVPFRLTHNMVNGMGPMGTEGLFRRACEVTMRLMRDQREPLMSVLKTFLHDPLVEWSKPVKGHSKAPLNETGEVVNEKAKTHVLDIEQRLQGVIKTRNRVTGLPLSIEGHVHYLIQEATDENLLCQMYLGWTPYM
Chain of ATR/ATRIP (Q8WXE1 whole entry partner): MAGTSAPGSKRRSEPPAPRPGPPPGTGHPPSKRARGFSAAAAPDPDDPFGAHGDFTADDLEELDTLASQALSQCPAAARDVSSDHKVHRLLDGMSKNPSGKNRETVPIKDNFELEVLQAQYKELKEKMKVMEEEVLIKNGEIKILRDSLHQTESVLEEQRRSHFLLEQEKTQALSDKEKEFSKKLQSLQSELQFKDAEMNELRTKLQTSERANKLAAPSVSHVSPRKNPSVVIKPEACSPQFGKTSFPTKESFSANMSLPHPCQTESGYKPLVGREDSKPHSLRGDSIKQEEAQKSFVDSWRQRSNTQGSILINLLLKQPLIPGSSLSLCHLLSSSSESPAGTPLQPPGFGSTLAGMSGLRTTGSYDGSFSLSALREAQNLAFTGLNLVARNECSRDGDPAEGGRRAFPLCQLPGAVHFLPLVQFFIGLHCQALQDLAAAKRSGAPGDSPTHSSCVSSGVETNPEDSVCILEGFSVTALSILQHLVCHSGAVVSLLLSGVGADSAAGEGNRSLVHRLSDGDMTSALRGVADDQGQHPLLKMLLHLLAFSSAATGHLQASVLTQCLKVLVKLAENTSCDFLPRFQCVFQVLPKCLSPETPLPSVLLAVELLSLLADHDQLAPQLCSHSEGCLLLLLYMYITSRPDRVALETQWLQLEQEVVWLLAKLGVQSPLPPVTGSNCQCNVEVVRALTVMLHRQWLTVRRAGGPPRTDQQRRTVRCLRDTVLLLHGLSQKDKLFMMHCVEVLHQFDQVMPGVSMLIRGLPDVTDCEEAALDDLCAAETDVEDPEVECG

## C[C@@H]1COCCN1c1cc(-c2ccncc2F)c2c(n1)c(-c1cc[nH]n1)nn2C [Compound 20, 7-(3-Fluoro-pyridin-4-yl)-1-methyl-5-((R)-3-methyl-morpholin-4-yl)-3-(1H-pyrazol-3-yl)-1H-pyrazolo[4,3-b]pyridine]
ATR/ATRIP
  IC50: 1.2 nM
[1]; @ 10 μM
  hERG % effect @ conc: −11%
[1]
  Ki: > 10 µM
[2]
  IC50: 10 to 100 nM

## C[C@@H]1COCCN1c1cc(-c2ccnn2CCF)c2c(n1)c(-c1cc[nH]n1)nn2C [Compound 36, 7-[2-(2-Fluoro-ethyl)-2H-pyrazol-3-yl]-1-methyl-5-((R)-3-methyl-morpholin-4-yl)-3-(1H-pyrazol-3-yl)-1H-pyrazolo[4,3-b]pyridine]
ATR/ATRIP
  IC50: 0.6 nM
[1]; @ 10 μM
  hERG % effect @ conc: −9%
[1]
  Ki: > 10 µM
[2]
  IC50: 10 to 100 nM

## Cc1nn(C)cc1-c1cc(N2CCOC[C@H]2C)nc2c(-c3cc[nH]n3)nn(C)c12 [Compound 19, 7-(1,3-Dimethyl-1H-pyrazol-4-yl)-1-methyl-5-((R)-3-methyl-morpholin-4-yl)-3-(1H-pyrazol-3-yl)-1H-pyrazolo[4,3-b]pyridine]
ATR/ATRIP
  IC50: 3.4 nM
[1]; @ 10 μM
  hERG % effect @ conc: −6%
[1]
  Ki: > 10 µM
[2]
  IC50: 10 to 100 nM

## C[C@@H]1COCCN1c1cc(-c2ccc(S(C)(=O)=O)cc2)c2c(n1)c(-c1cc[nH]n1)nn2C [Compound 7, 7-(4-Methanesulfonyl-phenyl)-1-methyl-5-((R)-3-methyl-morpholin-4-yl)-3-(1H-pyrazol-3-yl)-1H-pyrazolo[4,3-b]pyridine]
ATR/ATRIP
  IC50: 2.3 nM
[1]; @ 10 μM
  hERG % effect @ conc: −16%
[1]
  Ki: > 10 µM
[2]
  IC50: 10 to 100 nM

## C[C@@H]1COCCN1c1cc(C2CCCOC2)c2c(n1)c(-c1ccn[nH]1)nn2C (stereo partly drawn) [Compound 67, 1-Methyl-5-((R)-3-methyl-morpholin-4-yl)-3-(2H-pyrazol-3-yl)-7-(tetrahydro-pyran-3-yl)-1H-pyrazolo[4,3-b]pyridine]
ATR/ATRIP
  IC50: 0.8 nM
[1]; @ 10 μM
  hERG % effect @ conc: −12%
[1]
  Ki: > 10 µM
[2]
  IC50: 10 to 100 nM

## C[C@@H]1COCCN1c1cc(C2CCOC2)c2c(n1)c(-c1ccn[nH]1)nn2C (stereo partly drawn) [Compound 70, 1-Methyl-5-((R)-3-methyl-morpholin-4-yl)-3-(2H-pyrazol-3-yl)-7-(tetrahydro-furan-3-yl)-1H-pyrazolo[4,3-b]pyridine]
ATR/ATRIP
  IC50: 2.2 nM
[1]; @ 10 μM
  hERG % effect @ conc: −20%
[1]
  Ki: > 10 µM
[2]
  IC50: 10 to 100 nM

## Cc1ncccc1-c1cc(N2CCOC[C@H]2C)nc2c(-c3cc[nH]n3)nn(C)c12 [Compound 4, 1-Methyl-5-((R)-3-methyl-morpholin-4-yl)-7-(2-methyl-pyridin-3-yl)-3-(1H-pyrazol-3-yl)-1H-pyrazolo[4,3-b]pyridine]
ATR/ATRIP
  IC50: 0.8 nM
[1]; @ 10 μM
  hERG % effect @ conc: −12%
[1]
  Ki: > 10 µM
[2]
  IC50: 10 to 100 nM

## Cc1cc(S(C)(=O)=O)ccc1-c1cc(N2CCOC[C@H]2C)nc2c(-c3cc[nH]n3)nn(C)c12 [Compound 50, (3R)-4-[7-(4-Methanesulfonyl-2-methylphenyl)-1-methyl-3-(1H-pyrazol-3-yl)-1H-pyrazolo[4,3-b]pyridin-5-yl]-3-methylmorpholine]
ATR/ATRIP
  IC50: 1.3 nM
[1]; @ 10 μM
  hERG % effect @ conc: −17%
[1]
  Ki: > 10 µM
[2]
  IC50: < 10 nM

## C[C@@H]1COCCN1c1cc(-c2ccnc3[nH]ccc23)c2c(n1)c(-c1cc[nH]n1)nn2C [Compound 15, 1-Methyl-5-((R)-3-methyl-morpholin-4-yl)-3-(1H-pyrazol-3-yl)-7-(1H-pyrrolo[2,3-b]pyridin-4-yl)-1H-pyrazolo[4,3-b]pyridine]
ATR/ATRIP
  IC50: 0.6 nM
[1]; @ 10 μM
  hERG % effect @ conc: −24%
[1]
  Ki: > 10 µM
[2]
  IC50: 10 to 100 nM

## C[C@@H]1COCCN1c1cc(C2CCOCC2)c2c(n1)c(-c1ccn[nH]1)nn2C [Compound 55, 1-Methyl-5-((R)-3-methyl-morpholin-4-yl)-3-(2H-pyrazol-3-yl)-7-(tetrahydro-pyran-4-yl)-1H-pyrazolo[4,3-b]pyridine]
ATR/ATRIP
  IC50: 0.7 nM
[1]; @ 10 μM
  hERG % effect @ conc: −14%
[1]
  Ki: > 10 µM
[2]
  IC50: 10 to 100 nM

## C[C@@H]1COCCN1c1cc(-c2ccc([S+](C)[O-])cc2)c2c(n1)c(-c1cc[nH]n1)nn2C (stereo partly drawn) [Compound 5, 7-(4-Methanesulfinyl-phenyl)-1-methyl-5-((R)-3-methyl-morpholin-4-yl)-3-(1H-pyrazol-3-yl)-1H-pyrazolo[4,3-b]pyridine]
ATR/ATRIP
  IC50: 3.5 nM
[1]; @ 10 μM
  hERG % effect @ conc: −22%
[1]
  Ki: > 10 µM
[2]
  IC50: 10 to 100 nM

## Cc1ccccc1-c1cc(N2CCOC[C@H]2C)nc2c(-c3ccn[nH]3)nn(C)c12 [Compound 49, (3R)-3-Methyl-4-[1-methyl-7-(2-methylphenyl)-3-(1H-pyrazol-5-yl)-1H-pyrazolo[4,3-b]pyridin-5-yl]morpholine]
ATR/ATRIP
  IC50: 1.8 nM
[1]; @ 10 μM
  hERG % effect @ conc: −18%
[1]
  Ki: > 10 µM
[2]
  IC50: 10 to 100 nM

## Cc1nc([S+](C)[O-])ccc1-c1cc(N2CCOC[C@H]2C)nc2c(-c3cc[nH]n3)nn(C)c12 (stereo partly drawn) [Compound 8, 7-(6-Methanesulfinyl-2-methyl-pyridin-3-yl)-1-methyl-5-((R)-3-methyl-morpholin-4-yl)-3-(1H-pyrazol-3-yl)-1H-pyrazolo[4,3-b]pyridine]
ATR/ATRIP
  IC50: 2.1 nM
[1]; @ 10 μM
  hERG % effect @ conc: −6%
[1]
  Ki: > 10 µM
[2]
  IC50: < 10 nM

## C[C@@H]1COCCN1c1cc(-c2ccnn2C)c2c(n1)c(-c1cc[nH]n1)nn2C [Compound 61, (3R)-3-Methyl-4-[1-methyl-7-(1-methyl-1H-pyrazol-5-yl)-3-(1H-pyrazol-3-yl)-1H-pyrazolo[4,3-b]pyridin-5-yl]morpholine]
ATR/ATRIP
  IC50: 0.6 nM
[1]; @ 30 μM
  hERG % effect @ conc: −12%
[1]
  Ki: > 30 µM
[2]
  IC50: 10 to 100 nM

## C[C@@H]1COCCN1c1cc(C2=CCOCC2)c2c(n1)c(-c1cc[nH]n1)nn2C [Compound 54, (3R)-4-[7-(3,6-Dihydro-2H-pyran-4-yl)-1-methyl-3-(1H-pyrazol-3-yl)-1H-pyrazolo[4,3-b]pyridin-5-yl]-3-methylmorpholine]
ATR/ATRIP
  IC50: 2.2 nM
[1]; @ 10 μM
  hERG % effect @ conc: −2%
[1]
  Ki: > 10 µM
[2]
  IC50: 10 to 100 nM

## C[C@@H]1COCCN1c1cc([C@@H]2CCCOC2)c2c(n1)c(-c1ccn[nH]1)nn2C [Compound 69, 1-Methyl-5-((R)-3-methyl-morpholin-4-yl)-3-(2H-pyrazol-3-yl)-7-(S)-tetrahydro-pyran-3-yl-1H-pyrazolo[4,3-b]pyridine]
[1]; @ 30 μM
  hERG % effect @ conc: −29%
[1]
  Ki: > 30 µM
[2]
  IC50: 10 to 100 nM

## C[C@@H]1COCCN1c1cc(-c2ccnn2C(F)F)c2c(n1)c(-c1ccn[nH]1)nn2C [Compound 78, (3R)-4-{7-[1-(Difluoromethyl)-1H-pyrazol-5-yl]-1-methyl-3-(1H-pyrazol-5-yl)-1H-pyrazolo[4,3-b]pyridin-5-yl}-3-methylmorpholine]
[1]; @ 30 μM
  hERG % effect @ conc: −12%
[1]
  Ki: > 30 µM
[2]
  IC50: 10 to 100 nM

## C[C@@H]1COCCN1c1cc([C@@H]2CCOC2)c2c(n1)c(-c1ccn[nH]1)nn2C [Compound 71, 1-Methyl-5-((R)-3-methyl-morpholin-4-yl)-3-(2H-pyrazol-3-yl)-7-(S)-tetrahydro-furan-3-yl-1H-pyrazolo[4,3-b]pyridine]
[1]; @ 10 μM
  hERG % effect @ conc: −16%
[1]
  Ki: > 10 µM
[2]
  IC50: 10 to 100 nM

## C[C@@H]1COCCN1c1cc([C@H]2CCCOC2)c2c(n1)c(-c1ccn[nH]1)nn2C [Compound 68, 1-Methyl-5-((R)-3-methyl-morpholin-4-yl)-3-(2H-pyrazol-3-yl)-7-(R)-tetrahydro-pyran-3-yl-1H-pyrazolo[4,3-b]pyridine]
[1]; @ 30 μM
  hERG % effect @ conc: −35%
[1]
  Ki: > 30 µM
[2]
  IC50: 10 to 100 nM
